“Also recorded” adds a separate entry of the source.
Legend:
[1] = test system: SUP-B15 cells; test: MTT cell viability assay, SUP-B15; type: cell-based; conditions: Homo sapiens, SUP-B15 leukaemia cells, read-out: IC50 cell proliferation SUP-B15
Experimental: (§3) All cell lines were purchased from the China Centre for Type Culture Collection (CCTCC, China). […] Then, 20 μL of MTT (3–(4,5-dimethylthiazol-2-yl)-2,5-diphenyltetrazolium bromide) solution (5 mg/ml) was added and the cells were incubated for 4 h. The absorbance was measured using a microplate reader (DeTie Technology Co., Ltd, NanJing, China).

[2] = test system: KE-37 cells; test: MTT cell viability assay, KE-37; type: cell-based; conditions: Homo sapiens, KE-37 leukaemia cells, read-out: IC50 cell proliferation KE-37
Experimental: as §3

[3] = test system: HAL-01 cells; test: MTT cell viability assay, HAL-01; type: cell-based; conditions: Homo sapiens, HAL-01 leukaemia cells, read-out: IC50 cell proliferation HAL-01
Experimental: as §3

[4] = test system: LC4-1 cells; test: MTT cell viability assay, LC4-1; type: cell-based; conditions: Homo sapiens, LC4-1 leukaemia cells, read-out: IC50 cell proliferation LC4-1
Experimental: as §3

[5] = test system: P30-OHK cells; test: MTT cell viability assay, P30-OHK; type: cell-based; conditions: Homo sapiens, P30-OHK leukaemia cells, read-out: IC50 cell proliferation P30-OHK
Experimental: as §3

[6] = test system: MOLT-4 cells; test: MTT cell viability assay, MOLT-4; type: cell-based, human
Experimental: as §3

[7] = biological target: T1, MAO-A (Homo sapiens, UniProt P21397); test: MAO-A inhibition assay (MAO-Glo kit); type: biochemical; conditions: for IC50: in vitro
T1 construct: purchased Active Motif 31502
T1 sequence (P21397 1-527): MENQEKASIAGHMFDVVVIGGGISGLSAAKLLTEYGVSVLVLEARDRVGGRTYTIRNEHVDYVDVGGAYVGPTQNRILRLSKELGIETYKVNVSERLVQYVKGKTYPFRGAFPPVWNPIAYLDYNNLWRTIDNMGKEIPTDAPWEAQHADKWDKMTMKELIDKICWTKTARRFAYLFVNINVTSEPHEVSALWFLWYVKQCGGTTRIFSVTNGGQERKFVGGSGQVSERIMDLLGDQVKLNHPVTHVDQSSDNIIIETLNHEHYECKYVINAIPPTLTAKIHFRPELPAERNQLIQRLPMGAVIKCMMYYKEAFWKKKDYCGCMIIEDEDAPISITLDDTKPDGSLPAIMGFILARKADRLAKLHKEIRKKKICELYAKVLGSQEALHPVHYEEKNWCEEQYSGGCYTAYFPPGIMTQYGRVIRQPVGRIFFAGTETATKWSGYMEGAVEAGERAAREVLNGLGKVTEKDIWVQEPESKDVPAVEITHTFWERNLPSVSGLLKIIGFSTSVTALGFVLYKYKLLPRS
Experimental: (§1) The inhibition of LSD1 activity was evaluated according to reported references. pET-28b-LSD1 (full length) was transfected into BL21 (DE). Then, the protein was induced with 0.25 mmol/L IPTG following sonication and purified with Ni-NTA (Qiagen, Tubingen, Germany), Resource Q (GE, Pittsburgh, PA, USA) and Sephacryl S-200 HR (GE, Pittsburgh, PA, USA). The fluorescence intensity was read using EnVision Plate Reader (PerkinElmer, Waltham, MA, USA) to calculate the inhibition rate. The MAO-A and MAO-B were purchased from Active Motif (Cat#31502, Cat#31503, Carlsbad, CA, USA). Biochemical Kits were purchased from Promega (MAO-Glo Assay, Madison, WI, USA). The inhibitory activities of MAO-A and MAO-B were obtained according to the reported reference. The inhibitory activities of CDK1 and CDK2 were obtained according to the reported reference.

[8] = biological target: T2, MAO-B (Homo sapiens, UniProt P27338); test: MAO-B inhibition assay (MAO-Glo kit); type: biochemical; conditions: for IC50: in vitro, MAO-AB [sic]
T2 construct: purchased Active Motif 31503
T2 sequence (P27338 1-520): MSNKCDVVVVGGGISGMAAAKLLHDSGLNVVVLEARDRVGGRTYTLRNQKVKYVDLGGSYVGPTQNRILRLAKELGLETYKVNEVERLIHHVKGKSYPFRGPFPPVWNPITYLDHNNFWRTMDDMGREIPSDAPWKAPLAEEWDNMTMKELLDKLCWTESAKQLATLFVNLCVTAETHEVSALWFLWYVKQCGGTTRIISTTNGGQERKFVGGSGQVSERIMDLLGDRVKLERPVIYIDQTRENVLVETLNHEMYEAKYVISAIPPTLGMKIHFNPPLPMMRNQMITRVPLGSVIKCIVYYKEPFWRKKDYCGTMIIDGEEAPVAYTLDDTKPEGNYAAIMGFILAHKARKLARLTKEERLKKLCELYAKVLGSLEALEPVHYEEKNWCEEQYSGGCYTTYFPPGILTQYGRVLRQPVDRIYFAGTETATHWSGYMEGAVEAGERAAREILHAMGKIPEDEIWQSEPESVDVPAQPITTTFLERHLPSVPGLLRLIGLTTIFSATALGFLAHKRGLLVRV
Experimental: as §1

[9] = biological target: T3, LSD1 (Homo sapiens, UniProt O60341); test: LSD1 enzyme inhibition assay (recombinant LSD1, fluorescence); type: biochemical; conditions: for IC50: in vitro
T3 construct: pET-28b-LSD1 (full length) was transfected into BL21 (DE); inferred from the pET-28b vector and Ni-NTA purification; made in house; host or cells: E. coli BL21 (DE)
Experimental: (§4) The inhibition of LSD1 activity was evaluated according to reported references [23, 24]. pET-28b-LSD1 (full length) was transfected into BL21 (DE). Then, the protein was induced with 0.25 mmol/L IPTG following sonication and purified with Ni-NTA (Qiagen, Tubingen, Germany), Resource Q (GE, Pittsburgh, PA, USA) and Sephacryl S-200 HR (GE, Pittsburgh, PA, USA). The fluorescence intensity was read using EnVision Plate Reader (PerkinElmer, Waltham, MA, USA) to calculate the inhibition rate. […] The inhibitory activities of CDK1 and CDK2 were obtained according to the reported reference [26].

[10] = biological target: CDK2 (Homo sapiens, UniProt P24941); test: CDK2 enzyme assay; type: biochemical; conditions: 400 nM; read-out: inhibition rate CDK2
Experimental: as §4

[11] = test system: IMR-32 (neuroblastoma cells); test: MTT cell viability assay, IMR-32; type: cell-based; conditions: 4, 8, 16 μM; 48 h and 72 h
Experimental: (§2) Cancer cell lines (Hela, 22RV1, Caco-2, BEL-7402, MOLT-4, OVCAR-3, HCT-8, HIC, IMR-32, HAL-01, KE-37, P30-OHK, SUP-B15 and LC4-1) were maintained in RPMI 1640 medium (Hyclone, Los Angeles, CA, USA) with 10% foetal bovine serum (Hyclone, Los Angeles, USA) and 1% penicillin-streptomycin (Hyclone, Los Angeles, USA) in a humidified atmosphere of 5% CO2 and 95% air at 37 °C. All cell lines were purchased from the China Centre for Type Culture Collection (CCTCC, China). Control containing sequence specific for LSD1 ([…]) was described. The shRNA constructs were transfected into MOLT-4 cells using the Lonza Group nucleofector technology in accordance with the manufacturer’s instructions. MOLT-4&shLSD1 cells and MOLT-4&shControl cells were also established and cultured according to the published references. After the incubation for 24 h, cancer cell lines were cultured with the chalcone D6 at different concentrations. Then, 20 μL of MTT (3–(4,5-dimethylthiazol-2-yl)-2,5-diphenyltetrazolium bromide) solution (5 mg/ml) was added and the cells were incubated for 4 h. The absorbance was measured using a microplate reader (DeTie Technology Co., Ltd, NanJing, China).

[12] = biological target: CDK1 (Homo sapiens, UniProt P06493); test: CDK1 enzyme assay; type: biochemical; conditions: 400 nM; read-out: inhibition rate CDK1
Experimental: as §4

[13] = test system: 22RV1 (prostate cancer cells); test: MTT cell viability assay, 22RV1; type: cell-based; conditions: 4, 8, 16 μM; 48 h and 72 h
Experimental: as §2

[14] = test system: H3K9me1 and H3K9me2 in MOLT-4 cells; test: Western blotting of LSD1 substrates H3K9me1/2 in MOLT-4 cells; type: cell-based, human; conditions: western blot
Experimental: Western blot was performed with the total lysates using RIPA buffer (Hyclone, Los Angeles, CA, USA). Same amounts of protein were subjected to SDS-PAGE, and then transferred to nitrocellulose membranes (PALL, Cortland, NY, USA). After blocking with 5% milk solution, the membranes were incubated at 4 °C with respective antibody overnight, followed by the incubation with a secondary antibody. Finally, the blot was visualised by enhanced chemiluminescence kit (Thermo Fisher, Waltham, MA, USA).

[15] = test system: Caco-2 (colon cancer cells); test: MTT cell viability assay, Caco-2; type: cell-based; conditions: 4, 8, 16 μM; 48 h and 72 h
Experimental: as §2

[16] = test system: MOLT-4 xenograft; test: MOLT-4 xenograft study; type: in vivo; conditions: 60 mg/kg and 100 mg/kg, intragastric, 21 days
Experimental: Animals were treated according to the protocols established by the ethics committee of Shengjing Hospital of China Medical University and the in vivo experiments were carried out in accordance with the approved guidelines and approved by the ethics committee of Shengjing Hospital of China Medical University. BALB/c nude mice were purchased from Hunan Slack Scene of Laboratory Animal Co., Ltd. (Hunan, China). Xenograft models using human leukaemia cells, MOLT-4, were established in BALB/c mice. Then, mice were separated into vehicle group and treatment groups (60 mg/kg and 100 mg/kg). The treatment groups received compound D6 by intragastric administration for a period of 21 days.

CDK1, sequence (P06493 whole entry, species assumed): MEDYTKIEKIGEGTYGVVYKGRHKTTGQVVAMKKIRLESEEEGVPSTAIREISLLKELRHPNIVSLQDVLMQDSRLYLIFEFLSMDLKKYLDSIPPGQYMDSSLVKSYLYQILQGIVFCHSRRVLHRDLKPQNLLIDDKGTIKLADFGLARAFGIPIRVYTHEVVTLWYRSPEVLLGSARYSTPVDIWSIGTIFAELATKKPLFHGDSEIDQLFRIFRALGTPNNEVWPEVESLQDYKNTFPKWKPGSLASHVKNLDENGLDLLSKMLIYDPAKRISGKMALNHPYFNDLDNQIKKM
CDK1, sequence (P14635 whole entry partner, species assumed): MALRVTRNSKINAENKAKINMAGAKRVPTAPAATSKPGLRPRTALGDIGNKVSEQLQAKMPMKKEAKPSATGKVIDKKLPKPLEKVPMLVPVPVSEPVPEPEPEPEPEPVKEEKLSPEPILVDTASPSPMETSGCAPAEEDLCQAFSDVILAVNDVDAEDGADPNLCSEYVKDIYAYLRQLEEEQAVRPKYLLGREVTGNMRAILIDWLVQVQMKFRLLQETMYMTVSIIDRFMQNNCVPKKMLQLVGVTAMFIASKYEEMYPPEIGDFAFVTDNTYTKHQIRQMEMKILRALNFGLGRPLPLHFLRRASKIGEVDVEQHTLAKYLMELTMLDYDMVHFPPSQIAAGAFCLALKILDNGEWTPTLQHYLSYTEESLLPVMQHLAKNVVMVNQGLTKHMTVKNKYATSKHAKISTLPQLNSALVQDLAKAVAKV

SMILES	melting point	IC50 [7]	IC50 [8]	IC50 [9]	also measured
O=c1[nH]cc(F)c(=O)[nH]1 [5-Fluorouracil]	–	–	–	–	IC50 [1]: 2.1 µM; IC50 [2]: 4.02 µM; IC50 [3]: 5.1 µM; IC50 [4]: 10.2 µM; IC50 [5]: 4.17 µM; IC50 ([6]; Homo sapiens, MOLT-4 leukaemia cells, MTT, read-out: IC50 cell proliferation MOLT-4): 2.89 µM
O=C(CCl)Nc1ccc(C(=O)/C=C/c2ccccc2)cc1 [C1, (E)-2-Chloro-N-(4-cinnamoylphenyl)acetamide]	145 to 147 °C	> 20 µM	> 20 µM	> 20 µM	–
O=C(CCl)Nc1ccc(C(=O)/C=C/c2cccc(F)c2)cc1 [C2, (E)-2-Chloro-N-(4–(3-(3-fluorophenyl)acryloyl)phenyl)acetamide]	156 to 158 °C	> 20 µM	> 20 µM	19.7 ± 0.67 µM	–
O=C(CCl)Nc1ccc(C(=O)/C=C/c2ccccc2F)cc1 [C3, (E)-2-Chloro-N-(4–(3-(2-fluorophenyl)acryloyl)phenyl)acetamide]	167 to 169 °C	> 20 µM	> 20 µM	15.4 ± 0.28 µM	–
O=C(CCl)Nc1ccc(C(=O)/C=C/c2ccc(F)cc2)cc1 [C4]	–	> 20 µM	> 20 µM	> 20 µM	–
Nc1ccc(C(=O)/C=C/c2ccccc2F)cc1 [Chalcone 4, reference compound]	–	> 20 µM	> 20 µM	> 20 µM	–
CCN1CCN(C(=S)SCC(=O)Nc2ccc(C(=O)/C=C/c3ccc(F)cc3)cc2)CC1 [D1, (E)-2-((4–(3-(4-Fluorophenyl)acryloyl)phenyl)amino)-2-oxoethyl-4-ethylpiperazine-1-carbodithioate]	182 to 184 °C	> 20 µM	> 20 µM	11.3 ± 0.13 µM	–
CN1CCN(C(=S)SCC(=O)Nc2ccc(C(=O)/C=C/c3ccccc3)cc2)CC1 [D2, (E)-2-((4-Cinnamoylphenyl)amino)-2-oxoethyl-4-methylpiperazine-1-carbodithioate]	–	> 20 µM	> 20 µM	9.35 ± 0.14 µM	–
CCN1CCN(C(=S)SCC(=O)Nc2ccc(C(=O)/C=C/c3ccccc3)cc2)CC1 [D3, (E)-2-((4-Cinnamoylphenyl)amino)-2-oxoethyl-4-ethylpiperazine-1-carbodithioate]	181 to 183 °C	> 20 µM	> 20 µM	13.9 ± 0.18 µM	fold activity loss against LSD1 (fluorine replaced with hydrogen) ([9]; D3 vs. D5): over 6 fold
CN1CCN(C(=S)SCC(=O)Nc2ccc(C(=O)/C=C/c3cccc(F)c3)cc2)CC1 [D4, (E)-2-((4–(3-(3-Fluorophenyl)acryloyl)phenyl)amino)-2-oxoethyl-4-methylpiperazine-1-carbodithioate]	–	> 20 µM	> 20 µM	6.03 ± 0.17 µM	–
CCN1CCN(C(=S)SCC(=O)Nc2ccc(C(=O)/C=C/c3cccc(F)c3)cc2)CC1 [D5, (E)-2-((4–(3-(3-Fluorophenyl)acryloyl)phenyl)amino)-2-oxoethyl-4-ethylpiperazine-1-carbodithioate]	136 to 138 °C	> 20 µM	> 20 µM	2.29 ± 0.35 µM	–
CC(C)(C)OC(=O)N1CCN(C(=S)SCC(=O)Nc2ccc(C(=O)/C=C/c3ccccc3F)cc2)CC1 [D6, Tert-butyl-(E)-4-(((2-((4–(3-(2-fluorophenyl)acryloyl)phenyl)amino)-2-oxoethyl)thio)carbonothioyl)piperazine-1-carboxylate]	–	> 20 µM	> 20 µM	–	inhibition at 0.4 µM [10]: 19%; antiproliferative effects (cell viability) IMR-32 [11]: potential antiproliferative effects; inhibition at 0.4 µM [12]: 16.3%; antiproliferative effects (cell viability) MOLT-4 ([6]; 4, 8, 16 μM, 48 h and 72 h): potential antiproliferative effects; antiproliferation efficiency ([6]; MOLT-4 cells, 48 h, 4 μM): around 80%; antiproliferative effects (cell viability) 22RV1 [13]: potential antiproliferative effects; amount of H3K9me1 and H3K9me2 [14]: induce the accumulation of H3K9me1/2; also recorded: concentration dependent accumulation; also recorded: up-regulated the expression levels of H3K9me1 and H3K9me2; expression level of LSD1 [14]: did not affect; inhibition at 0.4 µM ([7]; 400 nM, read-out: inhibition rate MAO-A): 16.3%; inhibition at 0.4 µM ([8]; 400 nM, read-out: inhibition rate MAO-B): 17.7%; antiproliferative effects (cell viability) Caco-2 [15]: potential antiproliferative effects; body weight of mice [16]: almost unchanged; global toxicity in xenograft model [16]: low global toxicity; also recorded: without apparent toxicity; tumour growth (tumour volume, tumour weight) [16]: significantly suppressed MOLT-4 xenograft tumour growth; also recorded: inhibited tumour growth remarkably; also recorded: inhibited in vivo tumour growth
O=C(CSC(=S)N1CCN(Cc2ccccc2)CC1)Nc1ccc(C(=O)/C=C/c2ccccc2F)cc1 [D7, (E)-2-((4–(3-(2-Fluorophenyl)acryloyl)phenyl)amino)-2-oxoethyl-4-benzylpiperazine-1-carbodithioate]	–	> 20 µM	> 20 µM	3.27 ± 0.13 µM	–
Cc1ccc(Cn2cc(CSC(=S)N3CCN(C(=O)OC(C)(C)C)CC3)nn2)cc1 [Dithiocarbamate 26, reference compound]	–	> 20 µM	> 20 µM	–	–

Reference: PMC7738283, “Discovery of orally active chalcones as histone lysine specific demethylase 1 inhibitors for the treatment of leukaemia” (Journal of Enzyme Inhibition and Medicinal Chemistry, 2020)
